# Results: US20120225123A1, “Use of Synergistic Combinations of an Avermectin and an Antineoplastic Compounds for the Treatment of Hematological Malignancies” (UNIVERSITY HEALTH NETWORK, priority 2009, published 2012)
# Where two headings read alike, the source gives them in different places.
# How the values were obtained:
# [1] = cited from earlier work
# OCI-AML2 cells [2] = assay: Intracellular chloride (SPQ) and cell size (forward light scatter), OCI-AML2; type: cell-based, human
# Description: (§1) Intracellular chloride concentration was measured using a fluorescent indicator for chloride, SPQ as previously described.^16 Upon binding halide ions like chloride, SPQ is quenched resulting in a decrease in fluorescence without a shift in wavelength. […] After 15 minutes of incubation with SPQ, cells were diluted 15:1 in HBSS and centrifuged. The supernatant was removed, cells were resuspended in 200 μl of fresh HBSS and incubated for 15 minutes in 37° C. to allow recovery from the hypotonic shock. Cells were then stained with propidium iodide and SPQ fluorescence in the PI negative cells was determined using an LSR-II flow cytometer (Beckton Dickonson, San Jose, Calif.) (excitation 351 nm, emission 485 nm). In parallel, changes in cell size were determined by measuring forward light scatter by flow cytometry. Results were analyzed with FlowJo version 8.8 (TreeStar, Ashland, Oreg.).
# [3] = test system: normal hematopoetic cells; assay: Clonogenic (methylcellulose colony forming) assay, normal cells; type: cell-based, human; conditions: ivermectin 6 μM, n=3
# Description: To assess clonogenic growth, primary AML cells or granulocyte colony-stimulating factor (G-CSF) mobilized PBSCs (4×10^5/mL) were treated with IVM or buffer control for 24 hours. After treatment, cells were washed and 10^5 cell/mL were plated in duplicate in MethoCult GF H4434 medium (StemCell Technologies, Vancouver, BC) containing 1% methycellulose in IMDM, 30% FCS, 1% bovine serum albumin, 3 U/mL of recombinant human erythropoietin, 10^−4 M of 2-mercaptoethanol, 2 mM of L-glutamine, 50 ng/mL of recombinant human stem cell factor, 10 ng/mL of GM-CSF, and 10 ng/mL of rh IL-3. Alternatively, primary cells were plated directly into MethoCult GF H4434 medium with ivermectin. Seven days (AML samples) or 14 days (normal PBCS) after plating, the number of colonies containing 10 or more cells for AML or over 100 cells for normal samples was counted as previously described.^14
# Ivermectin was also evaluated in clonogenic assays in primary normal hematopoietic and AML cells. Ivermectin (6 μM) had minimal effects on the clonogenic growth of normal hematopoetic cells (n=3) with <15% reduction in clonogenic growth. In contrast, ivermectin reduced clonogenic growth by ≧40% in 3/6 primary AML samples (FIG. 1D). Similar effects were noted when primary cells were directly plated into clonogenic assays with ivermectin (FIG. 1G).
# [4] = test system: STAT1 and target genes IFIT3, OAS1 and TRIM22 in OCI-AML2 cells; assay: Gene expression by Q-RT-PCR, OCI-AML2; type: cell-based, human; conditions: after ivermectin treatment, Q-RT-PCR
# Description: Leukemia cells were treated with buffer control or ivermectin (3 μM) for 30 and 40 hours. After treatment, cells were harvested, total RNA was isolated. Total RNA (10 μg) was used for cRNA amplification using the Invitrogen SuperScript kit (Life Technologies, Inc., Burlington, ON, Canada). Amplification and biotin labeling of antisense cRNA was performed using the Enzo® BioArray™ High Yield™ RNA transcript labeling kit (Enzo Diagnostics, Farmingdale, N.Y., USA), according to the manufacturer's instructions. RNA was then hybridized to Affymetrix HG U133 Plus 2.0 gene expression oligonucleotide arrays (Affymetrix, Santa Clara, Calif., USA). Microarray slides were scanned using the GeneArray 2500 scanner (Agilent Technologies). Microarray data were analyzed using GeneSpring GX v10.0 (Agilent), and lists of genes deregulated>2-fold after 30 and 40 hr ivermectin treatment were derived. Pathways and gene ontology analyses were carried out using Ingenuity Pathways Analysis (www.ingenuity.com); and the Database for Annotation, Visualization and Integrated Discovery (DAVID; http://david.abcc.ncifcrf.gov). […]
# Gene expression changes were evaluated in OCI AML2, 0937, HL60, DU145 and PPC-1 cells by real-time Q-RT-PCRas described previously^15, 47. The expression level of STAT1A, STAT1B, TRIM22, OAS1 and IFIT3 before and after incubation of leukemia cells with ivermectin was evaluated.
# [5] = test system: DU145 and PPC-1 cells; normal hematopoietic cells; assay: Reactive oxygen species, Carboxy-H2DCFDA staining, resistant cells; type: cell-based, human
# OCI-AML2 cells [6] = assay: Plasma membrane potential, DiBAC4(3) staining, OCI-AML2; type: cell-based, human; conditions: for plasma membrane polarization: 5 hours
# Description: Plasma membrane potential was measured as previously described.^18 Briefly, cells treated with IVM or buffer control in RPM1, chloride replete medium (140 mM sodium chloride, 5 mM potassium chloride, 1 mM magnesium sulfate, 1.8 mM calcium acetate, 10 mM glucose, 10 mM HEPES and 0.1% (wt/v) BSA), or chloride free media where equimolar gluconate salts of sodium and potassium replaced the sodium chloride in the chloride replete medium. After incubation, cells were stained with DiBAC4(3) (final concentration 30 nM) and fluorescence determined by flow cytometry (BD FACS Canto, Becton Dickinson, San Jose, Calif.) (excitation=488 nm, emission=516 nm) Analysis was conducted using FACSDiva Software (BD Biosciences). Calibration curves were prepared using phosphate buffers with varying potassium ion concentrations as previously described.^18
# DU145 cells = assay: Intracellular chloride (SPQ) and cell size (forward light scatter), DU145; type: cell-based, human; conditions: 10 μM IVM, 2 hours
# Description: as §1
substance,measurement,setting,value
ivermectin,adverse effects,"[1]; healthy volunteers, oral, dose of 120 (~2 mg/kg)",no serious adverse effects were noted
same,adverse effects,"[1]; patients with spinal injury, up to 1.6 mg/kg subcutaneously twice weekly for up to 12 weeks",no significant adverse effects were reported
same,"intracellular chloride, SPQ fluorescence","OCI-AML2 cells [2]; 10 μM IVM, 2 hours",decreased SPQ fluorescence
same,cell size,"OCI-AML2 cells [2]; 2 hours of treatment, flow cytometry",caused an increase in cell size
same,reduction in clonogenic growth,[3],< 15%
same,expression of STAT1 and target genes,[4],"upregulation of STAT1 and target genes IFIT3, OAS1 and TRIM22"
same,ROS generation,[5]; DU145 and PPC-1 cells,did not show changes in ROS generation
same,ROS generation,[5]; normal hematopoietic cells,not normal hematopoietic cells
same,plasma membrane polarization,OCI-AML2 cells [6]; chloride deplete buffer,caused plasma membrane depolarization
same,plasma membrane polarization,OCI-AML2 cells [6]; chloride replete buffer,induced plasma membrane hyperpolarization
same,plasma membrane potential,"OCI-AML2 cells [6]; RPMI medium, as early as after 1 hour of treatment",induced membrane hyperpolarization in a dose dependent manner
same,chloride influx,DU145 cells,chloride influx was not observed
